Source: US10787462B2, “Heterocyclic compound” (TAKEDA PHARMACEUTICAL COMPANY LIMITED, priority 2015, dated 2020)

Molecular target: T1, human RIPK1 (1-375) (Homo sapiens, UniProt Q13546)
T1 construct: human RIPK1 (1-375) gene; GST; made in house; host or cells: Sf-9 insect cells
T1 sequence (Q13546 1-375): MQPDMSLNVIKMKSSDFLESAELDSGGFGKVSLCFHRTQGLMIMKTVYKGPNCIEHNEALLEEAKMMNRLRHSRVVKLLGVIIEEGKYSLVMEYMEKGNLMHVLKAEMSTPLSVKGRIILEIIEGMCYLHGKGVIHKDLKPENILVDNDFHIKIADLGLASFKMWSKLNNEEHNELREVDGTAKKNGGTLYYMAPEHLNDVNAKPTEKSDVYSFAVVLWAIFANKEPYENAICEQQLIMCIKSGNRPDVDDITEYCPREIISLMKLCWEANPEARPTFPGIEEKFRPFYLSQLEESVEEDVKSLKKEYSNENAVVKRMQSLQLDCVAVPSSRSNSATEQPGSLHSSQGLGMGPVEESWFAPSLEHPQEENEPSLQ
Assay: Human RIPK1 enzyme inhibitory effect (ADP-Glo Kinase Assay)
Format: biochemical
Conditions: well without enzyme = 100% inhibition; for inhibition at 10 µM: read-out: human RIPK1 enzyme inhibitory effect at 10 μM (% inhibition), 10 μM test compound; for human RIPK1 enzyme inhibitory effect at 10 μM (% inhibition): 10 μM test compound
Method in brief: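 Human RIPK1 (1-375), GST-purified from Sf-9 cells, preincubated 20 min at room temperature with compound in 25 mM HEPES pH 7.5, 10 mM MgCl2, 0.01% Tween-20, 2 mM DTT. Reaction started with 0.6 mM ATP solution (stock), run 120 min at room temperature. ADP measured by ADP-Glo luminescence.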

| inhibition at 10 µM | human RIPK1 enzyme inhibitory effect at 10 μM (% inhibition) | SMILES |
| --- | --- | --- |
| 99% |  | COc1ccc(Cn2cc3c(n2)C(=O)N([C@H]2COc4ccccc4N(C)C2=O)CC3)cc1 [Example 161, (3S)-3-(2-(4-methoxybenzyl)-7-oxo-2,4,5,7-tetrahydro-6H-pyrazolo[3,4-c]pyridin-6-yl)-5-methyl-2,3-dihydro-1,5-benzoxazepin-4(5H)-one] |
| 97% |  | CN1C(=O)[C@@H](N2CCc3cn(Cc4ccccc4F)nc3C2=O)COc2cc(C#N)ccc21 [Example 43, (3S)-3-(2-(2-fluorobenzyl)-7-oxo-2,4,5,7-tetrahydro-6H-pyrazolo[3,4-c]pyridin-6-yl)-5-methyl-4-oxo-2,3,4,5-tetrahydro-1,5-benzoxazepine-8-carbonitrile] |
|  | 73% | CN1C(=O)C(N2CCc3c(nn(Cc4ccccc4)c3Cl)C2=O)CCc2ncccc21 (stereo not drawn) [Example 67, 7-(2-benzyl-3-chloro-7-oxo-2,4,5,7-tetrahydro-6H-pyrazolo[3,4-c]pyridin-6-yl)-5-methyl-5,7,8,9-tetrahydro-6H-pyrido[3,2-b]azepin-6-one (optical isomer)] |
| 98% |  | CN1C(=O)[C@@H](N2CCn3nc(Cc4ccccc4)nc3C2=O)COc2ccccc21 [Example 8, (3S)-3-(2-benzyl-8-oxo-5,6-dihydro[1,2,4]triazolo[1,5-a]pyrazin-7(8H)-yl)-5-methyl-2,3-dihydro-1,5-benzoxazepin-4(5H)-one] |
| 96% |  | CN1C(=O)[C@@H](N2CCc3cn(Cc4ncco4)nc3C2=O)COc2ccccc21 [Example 35, (3S)-5-methyl-3-(2-(1,3-oxazol-2-ylmethyl)-7-oxo-2,4,5,7-tetrahydro-6H-pyrazolo[3,4-c]pyridin-6-yl)-2,3-dihydro-1,5-benzoxazepin-4(5H)-one] |
| 101% |  | CNC(=O)c1ccc2c(c1)N(C)C(=O)[C@@H](N1CCc3c(nn(Cc4ccccc4)c3Cl)C1=O)CO2 [Example 89, (3S)-3-(2-benzyl-3-chloro-7-oxo-2,4,5,7-tetrahydro-6H-pyrazolo[3,4-c]pyridin-6-yl)-N,5-dimethyl-4-oxo-2,3,4,5-tetrahydro-1,5-benzoxazepine-7-carboxamide] |
| 101% |  | CN1C(=O)[C@@H](N2CCc3cn(Cc4ccccc4F)nc3C2=O)COc2ccc(C#N)cc21 [Example 77, (3S)-3-(2-(2-fluorobenzyl)-7-oxo-2,4,5,7-tetrahydro-6H-pyrazolo[3,4-c]pyridin-6-yl)-5-methyl-4-oxo-2,3,4,5-tetrahydro-1,5-benzoxazepine-7-carbonitrile] |
| 87% |  | CN1C(=O)[C@@H](N2CCc3c(nn(Cc4ccccc4)c3O)C2=O)COc2ccccc21 [Example 49, (3S)-3-(2-benzyl-3-hydroxy-7-oxo-2,4,5,7-tetrahydro-6H-pyrazolo[3,4-c]pyridin-6-yl)-5-methyl-2,3-dihydro-1,5-benzoxazepin-4(5H)-one] |
| 101% |  | CNC(=O)c1ccc2c(c1)OC[C@H](N1CCc3cn(Cc4ccccc4F)nc3C1=O)C(=O)N2C [Example 117, (3S)-3-(2-(2-fluorobenzyl)-7-oxo-2,4,5,7-tetrahydro-6H-pyrazolo[3,4-c]pyridin-6-yl)-N,5-dimethyl-4-oxo-2,3,4,5-tetrahydro-1,5-benzoxazepine-8-carboxamide] |
|  | 61% | CN1C(=O)C(N2CCc3c(nn(Cc4ccccc4)c3Cl)C2=O)CCc2cn(C)nc21 (centres unmarked) [Example 113, 6-(2-benzyl-3-chloro-7-oxo-2,4,5,7-tetrahydro-6H-pyrazolo[3,4-c]pyridin-6-yl)-2,8-dimethyl-2,5,6,8-tetrahydropyrazolo[3,4-b]azepin-7(4H)-one] |
| 99% |  | CN1C(=O)[C@@H](N2CCc3cn(Cc4ccccc4)nc3C2=O)CS(=O)(=O)c2ccccc21 [Example 69, (3R)-3-(2-benzyl-7-oxo-2,4,5,7-tetrahydro-6H-pyrazolo[3,4-c]pyridin-6-yl)-5-methyl-2,3-dihydro-1,5-benzthiazepin-4(5H)-one 1,1-dioxide] |
| 93% |  | COc1ccc(Cn2c(Cc3ccccc3)nc3c2CCN([C@H]2COc4ccccc4N(C)C2=O)C3=O)cc1 [Example 54, (3S)-3-(2-benzyl-1-(4-methoxybenzyl)-4-oxo-1,4,6,7-tetrahydro-5H-imidazo[4,5-c]pyridin-5-yl)-5-methyl-2,3-dihydro-1,5-benzoxazepin-4(5H)-one] |
| 72% |  | O=C1Nc2ccccc2CCC1N1CCn2nc(Cc3ccccc3)cc2C1=O (centres unmarked) [Example 18, 3-(2-benzyl-4-oxo-6,7-dihydropyrazolo[1,5-a]pyrazin-5(4H)-yl)-1,3,4,5-tetrahydro-2H-1-benzazepin-2-one] |
| 100% |  | Cc1c2c(nn1Cc1ccccc1)C(=O)N([C@H]1COc3ccccc3N(C)C1=O)CC2 [Example 11, (3S)-3-(2-benzyl-3-methyl-7-oxo-2,4,5,7-tetrahydro-6H-pyrazolo[3,4-c]pyridin-6-yl)-5-methyl-2,3-dihydro-1,5-benzoxazepin-4(5H)-one] |
| 99% |  | CN1C(=O)C(N2CCc3c(nn(Cc4ccccc4F)c3Cl)C2=O)CCc2ccncc21 (centres unmarked) [Example 103, 3-(3-chloro-2-(2-fluorobenzyl)-7-oxo-2,4,5,7-tetrahydro-6H-pyrazolo[3,4-c]pyridin-6-yl)-1-methyl-1,3,4,5-tetrahydro-2H-pyrido[3,4-b]azepin-2-one] |
|  | 87% | CNC(=O)c1ccc2c(c1)CCC(N1CCc3c(nn(Cc4ccccc4)c3Cl)C1=O)C(=O)N2C (centres unmarked) [Example 137, 3-(2-benzyl-3-chloro-7-oxo-2,4,5,7-tetrahydro-6H-pyrazolo[3,4-c]pyridin-6-yl)-N,1-dimethyl-2-oxo-2,3,4,5-tetrahydro-1H-1-benzazepine-7-carboxamide] |
| 91% |  | CN1C(=O)[C@@H](N2CCCn3nc(Cc4ccccc4)nc3C2=O)COc2ccccc21 [Example 2, (3S)-3-(2-benzyl-9-oxo-6,7-dihydro-5H-[1,2,4]triazolo[1,5-a][1,4]diazepin-8(9H)-yl)-5-methyl-2,3-dihydro-1,5-benzoxazepin-4(5H)-one] |
| 99% |  | CN1C(=O)[C@@H](N2CCc3cn(Cc4ccccc4)nc3C2=O)COc2cc(F)ccc21 [Example 152, (3S)-3-(2-benzyl-7-oxo-2,4,5,7-tetrahydro-6H-pyrazolo[3,4-c]pyridin-6-yl)-8-fluoro-5-methyl-2,3-dihydro-1,5-benzoxazepin-4(5H)-one] |
| 99% |  | CN1C(=O)[C@@H](N2CCc3cn(Cc4ccc(C#N)cc4F)nc3C2=O)COc2ccccc21 [Example 162, 3-fluoro-4-((6-((3S)-5-methyl-4-oxo-2,3,4,5-tetrahydro-1,5-benzoxazepin-3-yl)-7-oxo-4,5,6,7-tetrahydro-2H-pyrazolo[3,4-c]pyridin-2-yl)methyl)benzonitrile] |
| 99% |  | O=C1Nc2ccc(Br)cc2OC[C@@H]1N1CCc2c(nn(Cc3ccccc3)c2Cl)C1=O [Example 82, (3S)-3-(2-benzyl-3-chloro-7-oxo-2,4,5,7-tetrahydro-6H-pyrazolo[3,4-c]pyridin-6-yl)-8-bromo-2,3-dihydro-1,5-benzoxazepin-4(5H)-one] |
| 92% |  | N#Cc1ccc2c(c1)OC[C@H](N1CCc3c(nn(Cc4ccccc4)c3Cl)C1=O)C(=O)N2 [Example 83, (3S)-3-(2-benzyl-3-chloro-7-oxo-2,4,5,7-tetrahydro-6H-pyrazolo[3,4-c]pyridin-6-yl)-4-oxo-2,3,4,5-tetrahydro-1,5-benzoxazepine-8-carbonitrile] |
| 92% |  | CN1C(=O)[C@@H](N2CCc3nn(Cc4ccccc4)cc3C2=O)COc2ccccc21 [Example 70, (3S)-3-(2-benzyl-4-oxo-2,4,6,7-tetrahydro-5H-pyrazolo[4,3-c]pyridin-5-yl)-5-methyl-2,3-dihydro-1,5-benzoxazepin-4(5H)-one] |
| 100% |  | CN1C(=O)[C@@H](N2CCc3cn(Cc4ccccc4)nc3C2=O)COc2ccc(Br)cc21 [Example 40, (3S)-3-(2-benzyl-7-oxo-2,4,5,7-tetrahydro-6H-pyrazolo[3,4-c]pyridin-6-yl)-7-bromo-5-methyl-2,3-dihydro-1,5-benzoxazepin-4(5H)-one] |
| 100% |  | CNC(=O)c1ccc2c(c1)OC[C@H](N1CCc3c(nn(Cc4c(F)cccc4F)c3Cl)C1=O)C(=O)N2C [Example 46, (3S)-3-(3-chloro-2-(2,6-difluorobenzyl)-7-oxo-2,4,5,7-tetrahydro-6H-pyrazolo[3,4-c]pyridin-6-yl)-N,5-dimethyl-4-oxo-2,3,4,5-tetrahydro-1,5-benzoxazepine-8-carboxamide] |
| 101% |  | CN1C(=O)[C@@H](N2CCc3cn(Cc4ccccc4F)nc3C2=O)COc2ccc(Br)cc21 [Example 138, (3S)-7-bromo-3-(2-(2-fluorobenzyl)-7-oxo-2,4,5,7-tetrahydro-6H-pyrazolo[3,4-c]pyridin-6-yl)-5-methyl-2,3-dihydro-1,5-benzoxazepin-4(5H)-one] |
| 97% |  | CN1C(=O)[C@@H](N2CCc3cn(CC4CCCOC4)nc3C2=O)COc2ccccc21 (stereo partly drawn) [Example 170, (3S)-5-methyl-3-(7-oxo-2-(tetrahydro-2H-pyran-3-ylmethyl)-2,4,5,7-tetrahydro-6H-pyrazolo[3,4-c]pyridin-6-yl)-2,3-dihydro-1,5-benzoxazepin-4(5H)-one] |
